Assay results from patent US4661483A, “Antihypercholesterolemic lactone compounds, compositions and use” (Merck & Co., Inc., priority 1986, dated 1987).

Test system: HMG-CoA reductase
Test: HMG-CoA Reductase Inhibition Assay (in vitro, [14C]HMG-CoA to mevalonolactone)
Assay type: biochemical
Details: IC50 compared with that of compactin determined simultaneously; compactin assigned 100 (footnote b60 prints 10); tested as sodium salt of dihydroxy acid form; solubilized rat liver microsomal enzyme
Method: The intrinsic HMG-CoA reductase inhibition activity of the claimed compounds is measured in the in vitro protocol published in J. Med. Chem., 28, p. 347-358 (1985) and described below:
Isolation of HMG-CoA Reductase
Male Holtzman Sprague-Dawley rats (225-250 g) were kept on reversed lighting and fed Purina rat chow containing 3% cholestyramine for 7 days preceding their sacrifice by CO2 asphyxiation. Livers were removed 6 hours into the dark cycle and used immediately to prepare microsomes. HMG-CoA reductase was solubilized from the freshly prepared microsome by the method of Heller and Shrewsbury [J. Biol. Chem., 1976, 251, 3815] and purified through the second ammonium sulfate precipitation step as described by Kleinsek et al. [Proc. Natl. Acad. Sci. USA, 1977, 74, 1431]. The enzyme preparation was tested for HMG-CoA reductase potency and diluted with 100 mM phosphate buffer (pH 7.2) so that 100 μl of the enzyme solution, when added to the assay control, gave a value of 50,000-60,000 dpm. The enzyme preparation was stored at -80° C.
HMG-CoA Reductase Inhibition Assay
The assay is essentially the procedure of Shefer et al. [J. Lipid Res., 1972, 13, 402]. The complete assay medium contained the following in a total volume of 0.8 ml: phosphate buffer, pH 7.2, 100 mM; MgCl2, 3 mM; NADP, 3 mM; glucose 6-phosphate, 10 mM; glucose-6-phosphate dehydrogenase, 3 enzyme units; reduced glutathione, 50 mM; HMG-CoA (glutaryl-3-^14 C, New England Nuclear), 0.2 mM (0.1 μCi); and partially purified enzyme stock solution, 100 μL.
Test compounds or compactin (after first being converted to the sodium salt of their dihydroxy acid form in situ by addition of 1N NaOH (1 equivalent) were added to the assay system in 10-μL volumes at multiconcentration levels. After a 40-minute incubation at 37° C. with shaking and exposure to air, the reaction was stopped by the addition of 0.4 mL of 8N HCl. After an additional 30-minute incubation period at 37° C. to ensure the complete lactonization of mevalonic acid to mevalonolactone, 0.2 ml of the mixture was added to an 0.5×5.0 cm column containing 100-200 mesh Bio-Rex 5, chloride form (Bio-Rad), wetted with distilled water, as described by Alberts et al. [J. Proc. Natl. Acad. Sci. U.S.A., 1980, 77, 3957]. The unreacted [^14 C]HMG-CoA was absorbed on the resin and the [^14 C]mevalonolactone was eluted with distilled water (2×1 ml) directly into 7-ml scintillation vials. Five milliliters of Aquasol-2 (New England Nuclear) was added to each vial, and radioactivity was measured in a Packard Tri Carb Prias scintillation counter. IC50 values were determined by plotting percentage inhibition against test compound concentration and fitting a straight line to the resulting data by using the least-squares method. For estimation of relative inhibitory potencies, compactin was assigned a value of 100 and the IC50 value of the test compound was compared with that of compactin determined simultaneously.

Row | Relative Potency | Compound
1 | 22 | CCN(CC)C(=O)C(C)(C)C(=O)OC1CC(C)C=C2C=CC(C)C(CCC(O)CC(O)CC(=O)O)C21 (centres unmarked)
2 | 20 | CC1C=C2C=CC(C)C(CCC(O)CC(O)CC(=O)O)C2C(OC(=O)C(C)(C)C(=O)N2CCOCC2)C1 (centres unmarked)
3 | 34 | CC1C=C2C=CC(C)C(CCC(O)CC(O)CC(=O)O)C2C(OC(=O)C(C)(C)C(=O)N(C)C)C1 (centres unmarked)
4 | 16 | CC1C=C2C=CC(C)C(CCC(O)CC(O)CC(=O)O)C2C(OC(=O)C(C)(C)CC(=O)N(C)C)C1 (centres unmarked)
5 | 13 | CNC(=O)C(C)(C)C(=O)OC1CC(C)C=C2C=CC(C)C(CCC(O)CC(O)CC(=O)O)C21 (centres unmarked)
